Measurements taken from patent publication US9951021B2, “Compounds for inhibiting c-Myc/Max/DNA complex formation” (NATIONAL CANCER CENTER, priority 2016, dated 2018).

Biological target: T1, recombinant c-Myc/Max (Homo sapiens, UniProt P01106+P61244)
T1 construct: made in house
Assay: Electrophoretic mobility shift assay (EMSA): inhibitory activity on DNA binding of recombinant c-Myc/Max
Settings: read-out: protein assay IC50
Protocol: 1) Preparation of Recombinant c-Myc and Max Proteins
Recombinant proteins were prepared as described in the following references: K. C. Jung et al., Fatty Acids, Inhibitors for the DNA Binding of c-Myc/Max Dimer, Suppress Proliferation and Induce Apoptosis of Differentiated HL-60 Human Leukemia Cell, Leukemia, 2006, 20(1), 122-7 or Kyung-Chae Jeong et al., Small-Molecule Inhibitors of c-Myc Transcriptional Factor Suppress Proliferation and Induce Apoptosis of Promyelocytic Leukemia Cell via Cell Cycle Arrest, Mol. BioSyst., 2010, 6, 1503-1509.
2) Electrophoretic Mobility Shift Assay (EMSA)
The inhibitory activity of each candidate compound on DNA binding of recombinant c-Myc/Max was measured using an electrophoretic mobility shift assay (EMSA). The ratio of protein-DNA complexes in each sample was evaluated by measuring band intensity. The oligonucleotides (E-box) corresponding to the consensus binding site of Myc/Max were dimerized through an annealing process. The protein mixture was incubated at room temperature for 5 minutes, and a DMSO solution containing each candidate compound was added thereto. The mixture was further incubated for 5 minutes, and the biotinylated DNA was added. To achieve a state of equilibrium, the final mixture was incubated at room temperature for 10 minutes. The protein-DNA complexes were separated from unbound free DNA by pre-electrophoresis using 8% polyacrylamide gel and 1×TBE buffer. After pre-electrophoresis, electrophoresis was performed at 120 V for 1 hour in 1×TBE buffer. Each band was visualized using HRP-conjugated streptavidin and an ECL solution, and band intensity was measured using image analysis software.

T1 sequence (P01106 whole entry): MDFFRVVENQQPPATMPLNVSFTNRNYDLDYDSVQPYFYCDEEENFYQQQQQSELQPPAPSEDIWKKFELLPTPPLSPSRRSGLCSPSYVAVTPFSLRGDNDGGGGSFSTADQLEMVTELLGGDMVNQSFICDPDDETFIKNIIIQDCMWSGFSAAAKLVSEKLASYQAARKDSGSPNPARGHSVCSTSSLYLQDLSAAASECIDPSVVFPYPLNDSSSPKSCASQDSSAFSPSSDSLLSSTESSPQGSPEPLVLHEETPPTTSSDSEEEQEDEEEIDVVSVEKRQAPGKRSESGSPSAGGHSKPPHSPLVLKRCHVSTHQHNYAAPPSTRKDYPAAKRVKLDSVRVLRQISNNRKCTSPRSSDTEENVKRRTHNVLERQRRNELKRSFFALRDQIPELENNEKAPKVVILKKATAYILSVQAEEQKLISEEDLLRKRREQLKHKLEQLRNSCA
T1 sequence (P61244 whole entry): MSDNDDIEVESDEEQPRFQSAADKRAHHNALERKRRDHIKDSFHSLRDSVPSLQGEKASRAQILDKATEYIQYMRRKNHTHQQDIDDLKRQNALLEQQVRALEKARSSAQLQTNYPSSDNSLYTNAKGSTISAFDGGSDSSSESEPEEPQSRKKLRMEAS

Row | Structure (SMILES) | IC50
1 | CC(=O)c1c([S+]([O-])Cc2ccc(C(F)(F)F)o2)[nH]c2c(Br)ccc(Cl)c2c1=O (centres unmarked) [Compound 72, 3-acetyl-8-bromo-5-chloro-2-(((5-(trifluoromethyl)furan-2-yl)methyl)sulfinyl)quinolin-4(1H)-one] | < 1000 nM
2 | CC(=O)c1c([S+]([O-])Cc2ccc(C#N)cc2)[nH]c2c(Br)ccc(Cl)c2c1=O (centres unmarked) [Compound 73, 4-(((3-acetyl-8-bromo-5-chloro-4-oxo-1,4-dihydroquinolin-2-yl)sulfinyl)methyl)benzonitrile] | < 1000 nM
3 | CC(=O)c1c([S+]([O-])Cc2c(F)cccc2Cl)[nH]c2c(Br)ccc(Cl)c2c1=O (centres unmarked) [Compound 74, 3-acetyl-8-bromo-5-chloro-2-((2-chloro-6-fluorobenzyl)sulfinyl)quinolin-4(1H)-one] | < 1000 nM
4 | COc1cc(S(F)(F)(F)(F)F)ccc1C[S+]([O-])c1[nH]c2c(Br)ccc(Cl)c2c(=O)c1C(C)=O (centres unmarked) [Compound 75, 3-acetyl-8-bromo-5-chloro-2-((2-methoxy-4-(pentafluoro-λ6-sulfanyl)benzyl)sulfinyl)quinolin-4(1H)-one] | < 1000 nM
5 | CC(=O)c1c([S+]([O-])Cc2cc(F)cc(S(F)(F)(F)(F)F)c2)[nH]c2c(Br)ccc(Cl)c2c1=O (centres unmarked) [Compound 76, 3-acetyl-8-bromo-5-chloro-2-((3-fluoro-5-(pentafluoro-λ6-sulfanyl)benzyl)sulfinyl)quinolin-4(1H)-one] | < 1000 nM
6 | CC(=O)c1c([S+]([O-])Cc2cccc(S(F)(F)(F)(F)F)c2)[nH]c2c(Br)ccc(Cl)c2c1=O (centres unmarked) [Compound 77, 3-acetyl-8-bromo-5-chloro-2-((3-(pentafluoro-λ6-sulfanyl)benzyl)sulfinyl)quinolin-4(1H)-one] | < 1000 nM
7 | CC(=O)c1c([S+]([O-])Cc2c(F)c(F)c(F)c(F)c2F)[nH]c2c(Br)ccc(Cl)c2c1=O (centres unmarked) [Compound 78, 3-acetyl-8-bromo-5-chloro-2-(((perfluorophenyl)methyl)sulfinyl)quinolin-4(1H)-one] | < 1000 nM
8 | CC(=O)c1c([S+]([O-])Cc2ccc(SC(F)(F)F)cc2)[nH]c2c(Cl)ccc(Cl)c2c1=O (centres unmarked) [Compound 79, 3-acetyl-5,8-dichloro-2-((4-((trifluoromethyl)thio)benzyl)sulfinyl)quinolin-4(1H)-one] | < 1000 nM
9 | CC(=O)c1c([S+]([O-])Cc2ccc(S(F)(F)(F)(F)F)cc2)[nH]c2c(F)ccc(F)c2c1=O (centres unmarked) [Compound 80, 3-acetyl-5,8-difluoro-2-((4-(pentafluoro-λ6-sulfanyl)benzyl)sulfinyl)quinolin-4(1H)-one] | < 1000 nM
10 | CC(=O)c1c([S+]([O-])Cc2ccc(C(F)(F)F)o2)[nH]c2c(F)ccc(F)c2c1=O (centres unmarked) [Compound 81, 3-acetyl-5,8-difluoro-2-(((5-(trifluoromethyl)furan-2-yl)methyl)sulfinyl)quinolin-4(1H)-one] | < 1000 nM
11 | CC(=O)c1c([S+]([O-])Cc2cc(C)on2)[nH]c2c(F)ccc(F)c2c1=O (centres unmarked) [Compound 82, 3-acetyl-5,8-difluoro-2-(((5-methylisoxazol-3-yl)methyl)sulfinyl)quinolin-4(1H)-one] | < 1000 nM
12 | CC(=O)c1c([S+]([O-])Cc2ccc(I)cc2)[nH]c2c(Cl)ccc(Cl)c2c1=O (centres unmarked) [Compound 83, 3-acetyl-5,8-dichloro-2-((4-iodobenzyl)sulfinyl)quinolin-4(1H)-one] | < 1000 nM
13 | CC(=O)c1c([S+]([O-])Cc2cccnc2)[nH]c2c(Br)ccc(Cl)c2c1=O (centres unmarked) [Compound 84, 3-acetyl-8-bromo-5-chloro-2-((pyridin-3-ylmethyl)sulfinyl)quinolin-4(1H)-one] | < 1000 nM
14 | CC(C)C(=O)c1c([S+]([O-])Cc2ccc(SC(F)(F)F)cc2)[nH]c2c(F)ccc(F)c2c1=O (centres unmarked) [Compound 85, 5,8-difluoro-3-isobutyryl-2-((4-((trifluoromethyl)thio)benzyl)sulfinyl)quinolin-4(1H)-one] | < 1000 nM
15 | Cc1cc(C[S+]([O-])c2[nH]c3c(Cl)ccc(Cl)c3c(=O)c2C(=O)C(C)C)no1 (centres unmarked) [Compound 86, 5,8-dichloro-3-isobutyryl-2-(((5-methylisoxazol-3-yl)methyl)sulfinyl)quinolin-4(1H)-one] | < 1000 nM
16 | O=C(c1ccccc1)c1c([S+]([O-])Cc2ccc(S(F)(F)(F)(F)F)cc2)[nH]c2c(F)ccc(F)c2c1=O (centres unmarked) [Compound 87, 3-benzoyl-5,8-difluoro-2-((4-(pentafluoro-λ6-sulfanyl)benzyl)sulfinyl)quinolin-4(1H)-one] | < 1000 nM

Row | Structure (SMILES) | IC50
17 | Cc1cc(C[S+]([O-])c2[nH]c3c(Cl)ccc(Cl)c3c(=O)c2C(=O)c2ccccc2)no1 (centres unmarked) [Compound 88, 3-benzoyl-5,8-dichloro-2-(((5-methylisoxazol-3-yl)methyl)sulfinyl)quinolin-4(1H)-one] | < 1000 nM
18 | COC(=O)c1ccc(C[S+]([O-])c2[nH]c3c(Cl)ccc(Cl)c3c(=O)c2C(C)=O)o1 (centres unmarked) [Compound 89, methyl 5-(((3-acetyl-5,8-dichloro-4-oxo-1,4-dihydroquinolin-2-yl)sulfinyl)methyl)furan-2-carboxylate] | < 1000 nM
19 | CC(=O)c1c([S+]([O-])CN2C(=O)c3ccccc3C2=O)[nH]c2c(Cl)ccc(Cl)c2c1=O (centres unmarked) [Compound 90, 2-(((3-acetyl-5,8-dichloro-4-oxo-1,4-dihydroquinolin-2-yl)sulfinyl)methyl)isoindoline-1,3-dione] | < 1000 nM
20 | COC(=O)c1ccc(C[S+]([O-])c2[nH]c3c(Cl)ccc(Cl)c3c(=O)c2C(C)=O)cc1 (centres unmarked) [Compound 91, methyl 4-(((3-acetyl-5,8-dichloro-4-oxo-1,4-dihydroquinolin-2-yl)sulfinyl)methyl)benzoate] | < 1000 nM
21 | COc1cccc2[nH]c(SCc3ccc(S(F)(F)(F)(F)F)cc3)c(C(C)=O)c(=O)c12 [Compound 92, 3-acetyl-5-methoxy-2-((4-(pentafluoro-λ6-sulfanyl)benzyl)thio)quinolin-4(1H)-one] | < 1000 nM
22 | COc1cccc2[nH]c([S+]([O-])Cc3ccc(S(F)(F)(F)(F)F)cc3)c(C(C)=O)c(=O)c12 (centres unmarked) [Compound 93, 3-acetyl-5-methoxy-2-((4-(pentafluoro-λ6-sulfanyl)benzyl)sulfinyl)quinolin-4(1H)-one] | < 1000 nM
23 | COc1cccc2[nH]c([S+]([O-])Cc3cc(C)on3)c(C(C)=O)c(=O)c12 (centres unmarked) [Compound 94, 3-acetyl-5-methoxy-2-(((5-methylisoxazol-3-yl)methyl)sulfinyl)quinolin-4(1H)-one] | < 1000 nM
24 | Cc1cc(C[S+]([O-])c2[nH]c3c(Br)ccc(Cl)c3c(=O)c2C(=O)C(C)C)no1 (centres unmarked) [Compound 95, 8-bromo-5-chloro-3-isobutyryl-2-(((5-methylisoxazol-3-yl)methyl)sulfinyl)quinolin-4(1H)-one] | < 1000 nM
25 | Cc1cc(C[S+]([O-])c2[nH]c3c(Br)ccc(Cl)c3c(=O)c2C(=O)C2CC2)no1 (centres unmarked) [Compound 96, 8-bromo-5-chloro-3-(cyclopropanecarbonyl)-2-(((5-methylisoxazol-3-yl)methyl)sulfinyl)quinolin-4(1H)-one] | < 1000 nM
26 | Cc1cc(C[S+]([O-])c2[nH]c3c(Cl)ccc(Cl)c3c(=O)c2C(=O)C2CC2)no1 (centres unmarked) [Compound 97, 5,8-dichloro-3-(cyclopropanecarbonyl)-2-(((5-methylisoxazol-3-yl)methyl)sulfinyl)quinolin-4(1H)-one] | < 1000 nM
27 | CC(=O)c1c([S+]([O-])Cc2ccc(C#N)s2)[nH]c2c(Br)ccc(Cl)c2c1=O (centres unmarked) [Compound 98, 5-(((3-acetyl-8-bromo-5-chloro-4-oxo-1,4-dihydroquinolin-2-yl)sulfinyl)methyl)thiophene-2-carbonitrile] | < 1000 nM
28 | CC(=O)c1c([S+]([O-])Cc2ccc(-n3cccn3)nc2)[nH]c2c(Br)ccc(Cl)c2c1=O (centres unmarked) [Compound 99, 2-(((6-(1H-pyrazol-1-yl)pyridin-3-yl)methyl)sulfinyl)-3-acetyl-8-bromo-5-chloroquinolin-4(1H)-one] | < 1000 nM
29 | CC(=O)c1c([S+]([O-])Cc2ccc(N)nc2)[nH]c2c(Br)ccc(Cl)c2c1=O (centres unmarked) [Compound 100, 3-acetyl-2-(((6-aminopyridin-3-yl)methyl)sulfinyl)-8-bromo-5-chloroquinolin-4(1H)-one] | < 1000 nM
30 | O=C(c1c([S+]([O-])Cc2ccc(SC(F)(F)F)cc2)[nH]c2c(Br)ccc(Cl)c2c1=O)C1CC1 (centres unmarked) [Compound 101, 8-bromo-5-chloro-3-(cyclopropanecarbonyl)-2-((4-((trifluoromethyl)thio)benzyl)sulfinyl)quinolin-4(1H)-one] | < 1000 nM
31 | CC(=O)c1c([S+]([O-])Cc2ccc(C(F)(F)F)nc2C)[nH]c2c(Br)ccc(Cl)c2c1=O (centres unmarked) [Compound 102, 3-acetyl-8-bromo-5-chloro-2-(((2-methyl-6-(trifluoromethyl)pyridin-3-yl)methyl)sulfinyl)quinolin-4(1H)-one] | < 1000 nM
32 | CC(=O)c1c([S+]([O-])Cc2ccc(NS(C)(=O)=O)cc2)[nH]c2c(Br)ccc(Cl)c2c1=O (centres unmarked) [Compound 103, N-(4-(((3-acetyl-8-bromo-5-chloro-4-oxo-1,4-dihydroquinolin-2-yl)sulfinyl)methyl)phenyl)methanesulfonamide] | < 1000 nM
